Test results taken from publication PMC9380258, “Primary and secondary functions of HLA-E are determined by stability and conformation of the peptide-bound complexes” (Cell Reports, 2022).

Assays:
[1] = molecular target: HLA-E*01:03 (Homo sapiens, UniProt P13747); assay: SEC-SAXS of peptide-refolded HLA-E*01:03 complexes
[2] = test system: HLA-E; assay type: binding, human
[3] = test system: HLA-E; assay type: binding, human; remark: listed apart in the source

RMAATAVVL [Mtb14 P7V]
decrease in the Rg [1]: 6.8 Å | decrease in the dmax [1]: 23 Å | increase in the ELISA-based binding signal [2]: 36% | increase in thermal stability [3]: 3.6 °C
